Experimental data taken from patent publication US20250108036A1, “COMPOSITIONS FOR REMOVING SENESCENT CELLS AND USES THEREOF” (LIFECEUTIX CO., LTD., priority 2021, published 2025).

Assays:
Assay type in all cases: cell-based, human
HMGN1 [1] = assay: HMGN1 ELISA in culture medium of A549 cancer cells (Example 12, Table 66); conditions: ELISA, DMSO = 100; for HMGN1 (amount of HMGN1 secreted in the cell culture): doxorubicin-induced senescent A549 cells; for activity at 30 µM / activity at 90 µM: Homo sapiens, A549, doxorubicin-induced senescent A549 cells, read-out: HMGN1 (amount of HMGN1 secreted in the cell culture)
senescent foreskin cells = assay: survival of senescent foreskin cells treated with medium supernatant (secreted fluid) of compound-killed cells (Example 13, Tables 68, 69); conditions: culture medium supernatant from dying senescent cells treated with compound at 30 μM, 90 μM or 270 μM; senescent foreskin cells
[2] = system: foreskin cells in which senescence was induced by doxorubicin; assay: CellTiter-Glo cell viability of doxorubicin-induced senescent foreskin cells (Examples 1-2, 10, 11, 13; Tables 4, 63, 65); conditions: doxorubicin-induced senescent foreskin cells, CellTiter-Glo, 0 μM = 100
Description: After 3 days, cell viability was measured using CellTiter-Glo Luminescent Cell Viability Assay (Promega) or light microscopy.

HMGN1 [3] = assay: HMGN1 ELISA in culture medium of foreskin cells (Examples 10, 11; Tables 62, 63, 64); conditions: doxorubicin-treated foreskin cells, DMSO = 100; for activity at 30 µM: read-out: HMGN1
A549 = assay: CellTiter-Glo cell viability of senescent A549 cancer cells (Example 12, Table 67); conditions: CellTiter-Glo; for Survival (%): doxorubicin-induced senescent A549 cancer cells; for viability at 1.1 µM / viability at 10 µM / viability at 30 µM / viability at 90 µM: Homo sapiens, A549, doxorubicin-induced senescent A549 cancer cells, read-out: Survival (%)
[4] = Homo sapiens, 72 h, 1.1 μM test compound, read-out: Survival (%)
[5] = Homo sapiens, 72 h, […] test compound, read-out: Survival (%)
[6] = Homo sapiens, 30 μM test compound
[7] = Homo sapiens, 72 h, 10 μM test compound, read-out: Survival (%)
[8] = Homo sapiens, 72 h, 30 μM test compound, read-out: Survival (%)

## Tocofersolan [LX-3001, reference compound]
HMGN1 [1]; test compound 30 μM
  HMGN1 (amount of HMGN1 secreted in the cell culture): 261
Senescent foreskin cells
  Survival: 58.7
[2]; 1.1 μM test compound
  Survival (%): 74.8%
[2]; […] test compound
  Survival (%): 1.1%
HMGN1 [3]; 30 μM test compound
  HMGN1: 301
A549; 1.1 μM test compound
  Survival (%): 101.6%
A549; 10 μM test compound
  Survival (%): 22.6%

## C[Si](C)(Cc1ccc(F)cc1)CN1CCCCC1.Cl [LX-1407, Silperisone, reference compound]
HMGN1 [1]; test compound 30 μM
  HMGN1 (amount of HMGN1 secreted in the cell culture): 175
Senescent foreskin cells
  Survival: 69.9
[2]; 1.1 μM test compound
  Survival (%): 99.4%
[2]; 10 μM test compound
  Survival (%): 72.8%
[2]; 30 μM test compound
  Survival (%): 19.9%
[2]; […] test compound
  Survival (%): 95.9%
HMGN1 [3]; 30 μM test compound
  HMGN1: 232
A549; 1.1 μM test compound
  Survival (%): 101.5%
A549; 10 μM test compound
  Survival (%): 71.7%
A549; 30 μM test compound
  Survival (%): 39.4%

## CN(Cc1cnc2nc(N)nc(N)c2n1)c1ccc(C(=O)N[C@@H](CCC(=O)O)C(=O)O)cc1 [LX-2901, Methotrexate, reference compound]
HMGN1 [1]; test compound 90 μM
  HMGN1 (amount of HMGN1 secreted in the cell culture): 189
Senescent foreskin cells
  Survival: 97.5
[2]; 1.1 μM test compound
  Survival (%): 103.3%
[2]; 10 μM test compound
  Survival (%): 104.8%
[2]; 30 μM test compound
  Survival (%): 93.6%
[2]; 90 μM test compound
  Survival (%): 49.9%
[2]; […] test compound
  Survival (%): 97.8%
HMGN1 [3]; 90 μM test compound
  HMGN1: 167
A549; 1.1 μM test compound
  Survival (%): 89%
A549; 10 μM test compound
  Survival (%): 90.4%
A549; 30 μM test compound
  Survival (%): 92.3%
A549; 90 μM test compound
  Survival (%): 37.2%

## CN1CC[C@@H](Nc2cccc3c2cc(-c2noc(CNC(=O)c4cnn(C(C)(C)C)c4)n2)n3CC(F)(F)F)[C@@H](F)C1 [LX-915]
HMGN1 [1]; test compound 90 μM
  HMGN1 (amount of HMGN1 secreted in the cell culture): 229
Senescent foreskin cells
  Survival: 53.1
[2]; 1.1 μM test compound
  Survival (%): 94.7%
[2]; 10 μM test compound
  Survival (%): 72.8%
[2]; 30 μM test compound
  Survival (%): 8.5%
[2]; […] test compound
  Survival (%): 83.2%
HMGN1 [3]; 30 μM test compound
  HMGN1: 297
A549; 1.1 μM test compound
  Survival (%): 94.7%
A549; 10 μM test compound
  Survival (%): 86.9%
A549; 30 μM test compound
  Survival (%): 84.9%
A549; 90 μM test compound
  Survival (%): 6.8%

## CC1(C)CC[C@]2(C(=O)NCC(F)(F)F)CC[C@]3(C)[C@H](C(=O)C[C@@H]4[C@@]5(C)C=C(C#N)C(=O)C(C)(C)[C@@H]5CC[C@]43C)[C@@H]2C1 [LX-2302, Dihydro-CDDO-Trifluoroethyl Amide]
HMGN1 [1]; test compound 30 μM
  activity at 30 µM: 313%
[2]; [4]
  viability at 1.1 µM: 48.9%
[2]; [5]
  viability at […]: 6.3%
HMGN1 [3]; [6]
  activity at 30 µM: 279%
A549; 1.1 μM test compound
  viability at 1.1 µM: 95.9%
A549; 10 μM test compound
  viability at 10 µM: 5.4%

## COc1cc2c(Nc3ccc(Br)cc3F)ncnc2cc1OCC1CCN(C)CC1 [LX-3302, Vandetanib, reference compound]
HMGN1 [1]; test compound 30 μM
  activity at 30 µM: 232%
[2]; [4]
  viability at 1.1 µM: 99.3%
[2]; [7]
  viability at 10 µM: 6.7%
[2]; [5]
  viability at […]: 51.9%
HMGN1 [3]; [6]
  activity at 30 µM: 268%
A549; 1.1 μM test compound
  viability at 1.1 µM: 99.5%
A549; 10 μM test compound
  viability at 10 µM: 67.9%
A549; 30 μM test compound
  viability at 30 µM: 16.4%

## COC(=O)[C@]12CCC(C)(C)C[C@H]1[C@H]1C(=O)C[C@@H]3[C@@]4(C)C=C(C#N)C(=O)C(C)(C)[C@@H]4CC[C@@]3(C)[C@]1(C)CC2 [LX-2301]
HMGN1 [1]; test compound 30 μM
  activity at 30 µM: 274%
[2]; [4]
  viability at 1.1 µM: 2.6%
HMGN1 [3]; [6]
  activity at 30 µM: 283%
A549; 1.1 μM test compound
  viability at 1.1 µM: 21.5%

## CCN(CC)c1nc2c(C(=O)O)c(O)c(I)c(-n3cccc3)c2s1 [LX-911]
HMGN1 [1]; test compound 90 μM
  activity at 90 µM: 206%
[2]; [4]
  viability at 1.1 µM: 94.3%
[2]; [7]
  viability at 10 µM: 43.5%
[2]; [8]
  viability at 30 µM: 7.5%
[2]; [5]
  viability at […]: 91.6%
HMGN1 [3]; [6]
  activity at 30 µM: 294%
A549; 1.1 μM test compound
  viability at 1.1 µM: 98.4%
A549; 10 μM test compound
  viability at 10 µM: 82.9%
A549; 30 μM test compound
  viability at 30 µM: 78.6%
A549; 90 μM test compound
  viability at 90 µM: 27.4%

## CN(C)CCn1cc(-c2ccc(F)cc2)c(-n2cccc2)n1 [LX-909]
HMGN1 [1]; test compound 90 μM
  activity at 90 µM: 240%
[2]; 1.1 μM test compound
  Survival (%): 100.5%
[2]; 10 μM test compound
  Survival (%): 75.1%
[2]; 30 μM test compound
  Survival (%): 2.8%
[2]; […] test compound
  Survival (%): 85.5%
HMGN1 [3]; [6]
  activity at 30 µM: 267%
A549; 1.1 μM test compound
  Survival (%): 96.7%
A549; 10 μM test compound
  Survival (%): 85.6%
A549; 30 μM test compound
  Survival (%): 77.2%
A549; 90 μM test compound
  Survival (%): 17.5%

## CC1(C)CC[C@]2(c3nc(CO)no3)CC[C@]3(C)[C@H](C(=O)C=C4[C@@]5(C)C=C(C#N)C(=O)C(C)(C)[C@@H]5CC[C@]43C)[C@@H]2C1 [LX-2508]
HMGN1 [1]; test compound 30 μM
  activity at 30 µM: 283%
[2]; [4]
  viability at 1.1 µM: 75.6%
[2]; [5]
  viability at […]: 28.2%
HMGN1 [3]; [6]
  activity at 30 µM: 313%
A549; 1.1 μM test compound
  viability at 1.1 µM: 93.5%
A549; 10 μM test compound
  viability at 10 µM: 43.9%

## CC1=CCC(c2cc(C(=O)C3CCC(c4ccc(C#N)cc4)CC3)c(C)cc2C2CCC2)=C1 (stereo not drawn) [LX-305]
HMGN1 [1]; test compound 90 μM
  activity at 90 µM: 227%
[2]; [4]
  viability at 1.1 µM: 101%
[2]; [7]
  viability at 10 µM: 91%
[2]; [8]
  viability at 30 µM: 78%
[2]; Homo sapiens, 72 h, 90 μM test compound, read-out: Survival (%)
  viability at 90 µM: 23.2%
[2]; [5]
  viability at […]: 97.2%
HMGN1 [3]; Homo sapiens, 90 μM test compound
  activity at 90 µM: 199%
A549; 1.1 μM test compound
  viability at 1.1 µM: 99.2%
A549; 10 μM test compound
  viability at 10 µM: 63.1%
A549; 30 μM test compound
  viability at 30 µM: 41%
A549; 90 μM test compound
  viability at 90 µM: 13.3%

## O=C1C(O)=C([C@H]2CC[C@H](c3ccc(Cl)cc3)CC2)C(=O)c2ccccc21 [LX-2802, Atovaquone, reference compound]
HMGN1 [1]; test compound 30 μM
  activity at 30 µM: 279%
[2]; [4]
  viability at 1.1 µM: 102%
[2]; [7]
  viability at 10 µM: 58.4%
[2]; [8]
  viability at 30 µM: 17.2%
[2]; [5]
  viability at […]: 81.2%
HMGN1 [3]; [6]
  activity at 30 µM: 268%
A549; 1.1 μM test compound
  viability at 1.1 µM: 101%
A549; 10 μM test compound
  viability at 10 µM: 74.1%
A549; 30 μM test compound
  viability at 30 µM: 35.7%

## COC(=O)[C@]12CCC(C)(C)C[C@H]1[C@H]1C(=O)C=C3[C@@]4(C)C=C(C#N)C(=O)[C@@H](C)[C@@H]4CC[C@@]3(C)[C@]1(C)CC2 [LX-2316]
HMGN1 [1]; test compound 30 μM
  activity at 30 µM: 263%
[2]; [4]
  viability at 1.1 µM: 36.6%
[2]; [5]
  viability at […]: 0.9%
HMGN1 [3]; [6]
  activity at 30 µM: 274%
A549; 1.1 μM test compound
  viability at 1.1 µM: 106%
A549; 10 μM test compound
  viability at 10 µM: 25.4%

## CC1(C)C(=O)C(C#N)=C[C@]2(C)C3=CC(=O)[C@@H]4[C@@H]5C[C@@](C)(C(=O)NCCc6c[nH]c7ccccc67)CC[C@]5(C)CC[C@@]4(C)[C@]3(C)CCC12 (stereo partly drawn) [LX-2517, Soloxolone tryptamide]
HMGN1 [1]; test compound 30 μM
  activity at 30 µM: 318%
[2]; [4]
  viability at 1.1 µM: 0.6%
HMGN1 [3]; [6]
  activity at 30 µM: 298%
A549; 1.1 μM test compound
  viability at 1.1 µM: 8.4%

## C[C@H](CN1CCCC1)C(=O)c1ccc(C(F)(F)F)cc1 [LX-1402, Lanperisone, reference compound]
HMGN1 [1]; test compound 30 μM
  activity at 30 µM: 248%
[2]; [4]
  viability at 1.1 µM: 101%
[2]; [7]
  viability at 10 µM: 15.6%
[2]; [8]
  viability at 30 µM: 2.1%
[2]; [5]
  viability at […]: 97.6%
HMGN1 [3]; [6]
  activity at 30 µM: 304%
A549; 1.1 μM test compound
  viability at 1.1 µM: 97.6%
A549; 10 μM test compound
  viability at 10 µM: 81.1%
A549; 30 μM test compound
  viability at 30 µM: 29.5%
